This note sets out measurements from US20210017193A1, “CONDENSED BICYCLIC HETEROCYCLIC DERIVATIVES AS PEST CONTROL AGENTS” (Bayer Aktiengesellschaft, priority 2018, published 2021).

Broadly, the chromatographic logP is lipophilicity estimated from chromatographic retention. A high value points to a more lipophilic compound.

Data set [1] concerns Myzus persicae. As to the kind of experiment: Myzus persicae spray test. The data set is classed as in vivo. As to conditions: foliar, 120 h, Chinese cabbage leaf discs, after 5 days, read-out: efficacy (aphids killed). The method, then: Myzus persicae—Spray Test Solvent: 78 parts by weight of acetone • • 1.5 parts by weight of dimethylformamide Emulsifier: alkylaryl polyglycol ether To produce a suitable active compound preparation, 1 part by weight of active compound is dissolved using the stated parts by weight of solvent and made up with water containing an emulsifier concentration of 1000 ppm until the desired concentration is attained. To produce further test concentrations, the formulation is diluted with emulsifier-containing water. Discs of Chinese cabbage leaves (Brassica pekinensis) infested by all stages of the green peach aphid (Myzus persicae) are sprayed with an active compound formulation of the desired concentration. After 5 days, the efficacy in % is determined. 100% means that all the aphids have been killed; 0% means that no aphids have been killed.

Data set [2] has as its system Diabrotica balteata. The data set is described as follows: Diabrotica balteata spray test. The data set is classed as in vivo. Conditions: 160 μg/cavity, sprayed germinated wheat grains, beetle larvae, after 7 days. The method, then: Diabrotica balteata—Spray Test Solvent: 78 parts by weight of acetone • • 1.5 parts by weight of dimethylformamide Emulsifier: alkylaryl polyglycol ether To produce a suitable active compound preparation, 1 part by weight of active compound is dissolved using the stated parts by weight of solvent and made up with water containing an emulsifier concentration of 1000 ppm until the desired concentration is attained. To produce further test concentrations, the formulation is diluted with emulsifier-containing water. Pre-swollen wheat grains (Triticum aestivum) are incubated in a multiwell plate filled with agar and a little water for one day (5 seed grains per cavity). The germinated wheat grains are sprayed with an active compound preparation of the desired concentration. Subsequently, each cavity is infected with 10-20 beetle larvae of Diabrotica balteata. After 7 days, the efficacy in % is determined. 100% means that all wheat plants have grown as in the untreated, uninfected control; 0% means that no wheat plant has grown.

The test system of data set [3] is Myzus persicae. The data set is described as follows: Myzus persicae oral test. The data set is classed as in vivo. As to conditions: 120 h, oral uptake from microtitre plates, after 5 days, read-out: efficacy (aphids killed). As to the method:
Myzus persicae—Oral Test Solvent: 100 parts by weight of acetone To produce a suitable preparation of active compound, 1 part by weight of active compound is dissolved using the specified parts by weight of solvent and made up with water until the desired concentration is attained. 50 μl of the active compound preparation are transferred into microtitre plates and made up to a final volume of 200 μl with 150 μl of IPL41 insect medium (33%+15% sugar). Subsequently, the plates are sealed with parafilm, which a mixed population of green peach aphids (Myzus persicae) within a second microtitre plate is able to puncture and imbibe the solution through. After 5 days, the efficacy in % is determined. 100% means that all the aphids have been killed; 0% means that no aphids have been killed.

In data set [4] the test system is Spodoptera frugiperda. As to the kind of experiment: Spodoptera frugiperda spray test. It counts as in vivo. Conditions: 100 g/ha, maize leaf discs, after 7 days. As to the method: Spodoptera frugiperda—Spray Test
(§1) Solvent: 78.0 parts by weight of acetone • • 1.5 parts by weight of dimethylformamide
(§2) Emulsifier: alkylaryl polyglycol ether
(§3) To produce a suitable active compound preparation, 1 part by weight of active compound is dissolved using the stated parts by weight of solvent and made up with water containing an emulsifier concentration of 1000 ppm until the desired concentration is attained. To produce further test concentrations, the formulation is diluted with emulsifier-containing water.
Leaf discs of maize (Zea mays) are sprayed with an active compound formulation of the desired concentration and, after drying, populated with caterpillars of the fall armyworm (Spodopterafrugiperda).
After 7 days, the efficacy in % is determined. 100% means that all the caterpillars have been killed; 0% means that no caterpillar has been killed.

A short description of data set [5]: log P determination by HPLC on reversed-phase column (C18), acidic range. The data set is classed as physicochemical. As to conditions: LC-UV, formic acid in water/acetonitrile. The method, then:
log P Values The log P values were determined according to EEC Directive 79/831 Annex V.A8 by HPLC (high-performance liquid chromatography) on a reversed-phase column (C18) using the following methods: ^[a] […] Calibration was carried out using a homologous series of straight-chain alkan-2-ones (having 3 to 16 carbon atoms) with known log P values. The values between successive alkanones are determined by linear regression.

The subject of data set [6] is Meloidogyne incognita. As to the kind of experiment: Meloidogyne incognita test. As to conditions: 20 ppm, lettuce in sand, after 14 days. The data set is classed as in vivo. The method, then:
Meloidogyne incognita test Solvent: 125.0 parts by weight of acetone To produce a suitable active compound formulation, 1 part by weight of active compound is mixed with the stated amount of solvent and the concentrate is diluted to the desired concentration with water. Vessels are filled with sand, active compound solution, an egg/larvae suspension of the southern root-knot nematode (Meloidogyne incognita) and lettuce seeds. The lettuce seeds germinate and the plants develop. The galls develop on the roots. After 14 days, the nematicidal efficacy in % is determined by the formation of galls. 100% means that no galls were found; 0% means that the number of galls on the treated plants corresponds to the untreated control.

Data set [7] relates to Ctenocephalides felis. As to the kind of experiment: Ctenocephalides felis oral test. As to conditions: 100 ppm in citrated cattle blood, adult cat fleas, after 2 days. The data set is classed as in vivo. As to the method:
Ctenocephalides felis—Oral Test
Solvent: dimethyl sulfoxide
To produce a suitable active compound formulation, 10 mg of active compound are mixed with 0.5 ml of dimethyl sulfoxide. Dilution with citrated cattle blood gives the desired concentration.
About 20 unfed adult cat fleas (Ctenocephalidesfelis) are placed into a chamber which is closed at the top and bottom with gauze. A metal cylinder whose bottom end is closed with parafilm is placed onto the chamber. The cylinder contains the blood/active compound formulation, which can be imbibed by the fleas through the parafilm membrane.
After 2 days, the kill in % is determined. 100% means that all of the fleas have been killed; 0% means that none of the fleas have been killed.

Data set [8] concerns Phaedon cochleariae. As to the kind of experiment: Phaedon cochleariae spray test. The data set is classed as in vivo. Conditions: 100 g/ha, Chinese cabbage leaf discs, after 7 days. The method, then: Phaedon cochleariae—Spray Test
as §1, §2, §3
Discs of Chinese cabbage leaves (Brassica pekinensis) are sprayed with an active compound formulation of the desired concentration and, after drying, populated with larvae of the mustard beetle (Phaedon cochleariae).
After 7 days, the efficacy in % is determined. 100% means that all the beetle larvae have been killed; 0% means that no beetle larvae have been killed.

Data set [9] has as its system Tetranychus urticae. The data set is described as follows: Tetranychus urticae spray test, OP-resistant. The data set is classed as in vivo. Conditions: 100 g/ha, bean leaf discs, after 6 days. As to the method: Tetranychus urticae—Spray Test, OP-Resistant
as §1, §2, §3
Discs of bean leaves (Phaseolus vulgaris) infested with all stages of the greenhouse red spider mite (Tetranychus urticae) are sprayed with an active compound formulation of the desired concentration.
After 6 days, the efficacy in % is determined. 100% means that all the spider mites have been killed; 0% means that no spider mites have been killed.

Data set [10] concerns Boophilus microplus. As to the kind of experiment: Boophilus microplus injection test. It counts as in vivo. Conditions: 20 μg/animal, injection into engorged adult female cattle ticks, assessed after 7 days. As to the method: Boophilus microplus—Injection Test Solvent: dimethyl sulfoxide To produce a suitable active compound formulation, 10 mg of active compound are mixed with 0.5 ml of solvent and the concentrate is diluted to the desired concentration with solvent. 1 μl of the active compound solution is injected into the abdomen of 5 engorged adult female cattle ticks (Boophilus microplus). The animals are transferred into dishes and kept in a climate-controlled room. Efficacy is assessed after 7 days by laying of fertile eggs. Eggs which are not visibly fertile are stored in a climate-controlled cabinet until the larvae hatch after about 42 days. An efficacy of 100% means that none of the ticks has laid any fertile eggs; 0% means that all the eggs are fertile.

`CCS(=O)(=O)c1c(-c2nc3cc(C(F)(F)F)n(C)c(=O)c3n2C)nc2cc(C(=O)C3CC3)ccn12` [Example I-08]: the pest or weed control at 100 g/ha in data set [1] came to 90%. This molecule yielded an efficacy in data set [2] of 100%. Moreover, the pest or weed control at 4 ppm in data set [3] is 100%. The “efficacy (caterpillars killed)” value in [4] is 100%.

Molecule `CCS(=O)(=O)c1c(-c2nc3cc(C(F)(F)F)n(C)c(=O)c3n2C)nc2cc(S(=O)(=O)C3CC3)ccn12` [Example I-12, 2-[7-(Cyclopropylsulfonyl)-3-(ethylsulfonyl)imidazo[1,2-a]pyridin-2-yl]-3,5-dimethyl-6-(trifluoromethyl)-3,5-dihydro-4H-imidazo[4,5-c]pyridin-4-one] yielded an efficacy in data set [2] of 100%. Further, in [3], the pest or weed control at 4 ppm stood at 100%. Moreover, the chromatographic logP in data set [5] amounted to 2.59. Moreover, in data set [4], the “efficacy (caterpillars killed)” value is 100%.

Regarding `CCS(=O)(=O)c1c(-c2nc3cc(C(F)(F)F)n(C)c(=O)c3n2C)nc2n1CCC(C)C2` (centres unmarked) [Example I-05], the pest or weed control at 100 g/ha in data set [1] was 100%. In addition, in data set [3], the pest or weed control at 4 ppm came to 100%. In data set [6], the “nematicidal efficacy (formation of galls)” value is given as 90%.

As to `CCS(=O)(=O)c1c(-c2nc3cc(C(F)(F)F)n(C)c(=O)c3n2C)nc2cc(C(F)(F)C3CC3)ccn12` [Example I-07], the efficacy in [2] stood at 100%. Moreover, in data set [3], the pest or weed control at 4 ppm came out at 100%. Further, the “efficacy (caterpillars killed)” value in data set [4] was 100%.

`CCS(=O)(=O)c1c(-c2nc3cc(C(F)(F)F)n(C)c(=O)c3n2C)nc2n1CCCC2C` (centres unmarked) [Example I-11]: in data set [1], the pest or weed control at 100 g/ha was determined as 90%. This molecule also returned an efficacy in data set [2] of 100%. For the same molecule, in [3], the pest or weed control at 4 ppm came out at 100%.

The molecule `CCS(=O)(=O)c1c(-c2nc3cc(C(F)(F)F)n(C)c(=O)c3n2C)nc2n1CCC(C(F)(F)F)C2` (centres unmarked) [Example I-06] displayed an efficacy in [2] of 100%. The pest or weed control at 4 ppm in data set [3] worked out at 100%. In [4], the “efficacy (caterpillars killed)” value is 100%.

Take `CCS(=O)(=O)c1c(-c2nc3cc(C(F)(F)F)n(C)c(=O)c3n2C)nc2n1CCC(C)(C)C2` [Example I-10, 2-(3-Ethylsulfonyl-7,7-dimethyl-6,8-dihydro-5H-imidazo[1,2-a]pyridin-2-yl)-3,5-dimethyl-6-(trifluoromethyl)imidazo[4,5-c]pyridin-4-one]: the pest or weed control at 100 g/ha in data set [1] amounted to 90%. In addition, in [2], the efficacy is on record as 100%. In data set [3], the pest or weed control at 4 ppm stood at 100%. Further, the chromatographic logP in data set [5] was found to be 2.66.

For the molecule `Cn1c(C(F)(F)F)cc2nc(-c3nc4n(c3Br)CCC(C)(C)C4)n(C)c2c1=O` [2-(3-Bromo-7,7-dimethyl-6,8-dihydro-5H-imidazo[1,2-a]pyridin-2-yl)-3,5-dimethyl-6-(trifluoromethyl)imidazo[4,5-c]pyridin-4-one], in data set [5], the chromatographic logP is 3.14.

Turning to `CC1(C)CCn2c(nc(C(=O)O)c2Br)C1` [3-Bromo-7,7-dimethyl-6,8-dihydro-5H-imidazo[1,2-a]pyridine-2-carboxylicacid], the chromatographic logP in data set [5] was determined as 0.67.

`CCS(=O)(=O)c1c(-c2nc3cc(C(F)(F)F)n(C)c(=O)c3n2C)nc2cc(C3(C#N)CC3)ccn12` [Example I-02, 1-{2-[3,5-Dimethyl-4-oxo-6-(trifluoromethyl)-4,5-dihydro-3H-imidazo [4,5-c]pyridin-2-yl]-3-(ethylsulfonyl)imidazo[1,2-a]pyridin-7-yl}cyclopropanecarbonitrile]: the “efficacy (kill in %)” value in [7] was 100%. Further, the “efficacy (beetle larvae killed)” value in [8] is recorded as 100%. The pest or weed control at 100 g/ha in data set [1] came to 100%. The pest or weed control at 4 ppm in [3] was 100%. Moreover, the “nematicidal efficacy (formation of galls)” value in data set [6] turned out to be 100%. In data set [5], this molecule registered a chromatographic logP of 2.59. In data set [4], the “efficacy (caterpillars killed)” value turned out to be 100%.

Turning to `CCS(=O)(=O)c1c(-c2nc3cc(C(F)(F)F)n(C)c(=O)c3n2C)nc2n1CCC(C)C2C` (centres unmarked) [Example I-09], the pest or weed control at 100 g/ha in data set [1] turned out to be 90%. Further, the “efficacy (spider mites killed)” value in data set [9] is reported as 90%. In addition, the efficacy in data set [2] is given as 100%. Besides, the pest or weed control at 4 ppm in data set [3] is 100%.

`CCS(=O)(=O)c1c(-c2nc3cc(C(F)(F)F)n(C)c(=O)c3n2C)nc2n1CC(C)CC2` (centres unmarked) [Example I-04]: the pest or weed control at 100 g/ha in data set [1] was determined as 100%. The pest or weed control at 4 ppm in data set [3] stood at 100%.

Consider `CCS(=O)(=O)c1c(-c2nc3cc(C(F)(F)F)n(C)c(=O)c3n2C)nc2n1CCCC2` [Example I-03, 2-[3-(Ethylsulfonyl)-5,6,7,8-tetrahydroimidazo[1,2-a]pyridin-2-yl]-3,5-dimethyl-6-(trifluoromethyl)-3,5-dihydro-4H-imidazo[4,5-c]pyridin-4-one], for which, in data set [1], the pest or weed control at 100 g/ha was found to be 90%. Further, in data set [3], the pest or weed control at 4 ppm turned out to be 100%. Further, the chromatographic logP in [5] came out at 2.03.

Consider `CCS(=O)(=O)c1c(-c2nc3cc(C(F)(F)F)n(C)c(=O)c3n2C)nc2cc(C(F)(F)F)ccn12` [Example I-01, 2-[3-(Ethylsulfonyl)-7-(trifluoromethyl)imidazo[1,2-a]pyridin-2-yl]-3,5-dimethyl-6-(trifluoromethyl)-3,5-dihydro-4H-imidazo[4,5-c]pyridin-4-one], for which the “efficacy (laying of fertile eggs)” value in [10] came out at 100%. Besides, the “efficacy (kill in %)” value in [7] is given as 95%. Further, the pest or weed control at 4 ppm in data set [3] came out at 100%. The chromatographic logP in data set [5] was determined as 3.2. The “efficacy (caterpillars killed)” value in data set [4] came out at 100%.
